Assay [1] has as its target Translocator protein (Homo sapiens, UniProt P30536). Kind of assay: Binding affinity to TSPO (unknown origin).
For assay [2], the target named is Sigma intracellular receptor 2 (Homo sapiens, UniProt Q5BJF2). The experiment in a line: Binding affinity to sigma 2 receptor (unknown origin).
Assay [3] deals with Beta-3 adrenergic receptor (Homo sapiens, UniProt P13945). The experiment in a line: Binding affinity to beta3 adrenergic receptor (unknown origin).
For assay [4], the target named is 5-hydroxytryptamine receptor 7 (Homo sapiens, UniProt P34969). The experiment in a line: Binding affinity to 5HT-7A receptor (unknown origin).
5-hydroxytryptamine receptor 7, sequence (P34969 whole entry): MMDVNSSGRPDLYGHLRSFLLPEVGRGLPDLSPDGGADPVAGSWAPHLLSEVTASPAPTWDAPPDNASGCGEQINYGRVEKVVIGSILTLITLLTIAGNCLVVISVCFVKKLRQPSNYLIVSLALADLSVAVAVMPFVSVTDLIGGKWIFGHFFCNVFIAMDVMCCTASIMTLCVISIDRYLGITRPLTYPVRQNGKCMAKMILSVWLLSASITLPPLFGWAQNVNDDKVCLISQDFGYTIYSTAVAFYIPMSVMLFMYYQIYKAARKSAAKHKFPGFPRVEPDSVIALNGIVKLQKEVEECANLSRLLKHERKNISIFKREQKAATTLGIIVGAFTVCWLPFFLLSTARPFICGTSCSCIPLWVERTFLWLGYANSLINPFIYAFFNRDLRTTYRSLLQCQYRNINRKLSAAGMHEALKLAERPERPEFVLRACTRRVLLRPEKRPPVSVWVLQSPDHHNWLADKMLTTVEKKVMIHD

Structures are written as SMILES.

Translocator protein, sequence (P30536 whole entry): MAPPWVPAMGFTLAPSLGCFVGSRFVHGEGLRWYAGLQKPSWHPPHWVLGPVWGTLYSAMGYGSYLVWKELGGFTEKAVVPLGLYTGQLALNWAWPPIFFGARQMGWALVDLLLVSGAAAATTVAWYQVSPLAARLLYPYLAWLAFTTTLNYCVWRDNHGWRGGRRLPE
Beta-3 adrenergic receptor, sequence (P13945 whole entry): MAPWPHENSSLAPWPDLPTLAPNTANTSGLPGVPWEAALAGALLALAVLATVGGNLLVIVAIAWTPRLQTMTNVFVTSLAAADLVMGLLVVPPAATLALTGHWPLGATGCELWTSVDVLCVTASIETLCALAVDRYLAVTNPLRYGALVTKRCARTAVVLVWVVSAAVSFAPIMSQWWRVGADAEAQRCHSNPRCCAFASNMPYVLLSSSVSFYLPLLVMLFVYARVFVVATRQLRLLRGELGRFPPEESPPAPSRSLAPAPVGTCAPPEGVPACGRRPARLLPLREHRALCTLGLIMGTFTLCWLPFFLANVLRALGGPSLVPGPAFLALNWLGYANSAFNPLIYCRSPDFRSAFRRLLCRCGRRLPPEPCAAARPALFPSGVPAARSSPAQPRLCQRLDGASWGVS
Sigma intracellular receptor 2, sequence (Q5BJF2 whole entry): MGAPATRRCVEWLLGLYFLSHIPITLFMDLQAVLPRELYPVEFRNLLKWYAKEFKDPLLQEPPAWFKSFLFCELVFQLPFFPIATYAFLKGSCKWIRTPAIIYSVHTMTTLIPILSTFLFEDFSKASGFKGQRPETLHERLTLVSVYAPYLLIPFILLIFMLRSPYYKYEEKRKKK

With `CC(C)(C)Cc1c(C#Cc2ccccc2F)sc(N)c1C(=O)c1ccc(Cl)cc1`, the Ki in assay [1] was determined as 0.56 µM; in assay [2] it was 1.4 µM; in assay [3], 3.5 µM; in assay [4] it was 5.7 µM.

The record behind these values is ChEMBL document CHEMBL5390318, “2-Amino-5-arylethynyl-thiophen-3-yl-(phenyl)methanones as A1 Adenosine Receptor Positive Allosteric Modulators” (ACS Med Chem Lett, 2023).
